Where two headings read alike, the source gives them in different places.
Tested on: HCMV
Format: cell-based
Conditions: DE
Description: In example herpesvirus PRM assay methods shown herein, cell pellets were lysed in 2% SDS, 100 mM NaCl, 0.5 mM EDTA, 50 mM Tris, pH 8.2, and 50 μg of protein was reduced and alkylated with 25 mM TCEP and 50 mM CAM respectively for 20 min at 70° C. Proteins were then precipitated via methanol chloroform precipitation (Wessel & Flugg, Anal Biochem. 138(1):141-143, 1984), resuspended in 50 mM HEPES, pH 8.2 and digested overnight with trypsin (50:1 protein:enzyme w/w ratio). Digested peptides were desalted by SDB-RPS StageTip as previously described (Lum et al., Cell Syst., 7(6):[…], 2018; Greco et al., Methods Mol Biol 1410:39-63, 2016; Federspiel & Cristea, Methods Mol Biol., 1977:115-143, 2019).
Peptides (1.0 μg on column) were analyzed by LC-MS/MS using a Dionex Ultimate 3000 UHPLC coupled online to an EASYSpray ion source and a Q Exactive HF. Peptides were separated on an EASYSpray C18 column (75 μm×25 cm) heated to 50° C. using a linear gradient of 5% B to 32% B over 60 min at a flow rate of 250 nL/min and were ionized at 1.7 kv. Mobile phase A consisted of 0.1% FA in H2O and mobile phase B consisted of 0.1% FA, 2.9% H2O in ACN.
The PRM method was controlled by a peptide inclusion list with retention time windows of 6 min for selected precursor ions.
The PRM assay was developed and analyzed using the open-source software Skyline (Maclean et al., Bioinformatics 26(7):966-968, 2010). Summed area under the curve of 3-4 transitions per peptide was used for quantitation. Targeted peptides were normalized to host protein loading control peptides. Peptide values for each sample were scaled to the average of each peptide across all runs. The average of multiple peptides was used as the inferred value for the protein measurement when more than one peptide was quantified (Federspiel et al., PLoS Biol. 17(9):e3000437. Doi: 10.1371/journal.pbio.3000437). PRM quantitation data were graphed using the Python Seaborn and Matplotlib libraries.
MRC5 primary human fibroblasts (HFs) (ATCC CCL-171) were used as the model system for HSV-1 and HCMV infections and were cultured in complete growth medium (DMEM supplemented with 10% fetal bovine serum and 1% penicillin-streptomycin antibiotics) at 37° C. and 5% CO2. iSLK.219 cells harboring latent KSHV (a gift from Dr. Britt Glaunsinger, University of California, Berkeley) were grown in complete growth medium supplemented with 500 μg/ml hygromycin (ThermoFisher Scientific, 10687010) at 37° C. and 5% CO2. All cells were used for experiments within a maximum of 10 passages.
Wild type HSV-1 strain 17+ (a gift from Beate Sodeik, Hannover Medical School, Hannover, Germany) was propagated as previously described (Diner et al., 2015). Briefly, PO stocks were generated by electroporating pBAC-HSV-1 into U-2 OS cells. […] In a similar manner, wild type HCMV strain AD169 was produced from BAC electroporation into HFs and working stocks were propagated by infecting HFs at a low level. In both cases, cell-associated virus was released by sonication, combined with supernatant virus, then concentrated by ultracentrifugation (20,000 rpm, 2 hours, 4° C. with SW28 swinging bucket rotor [Beckman Coulter]) over a 10% ficoll (HSV-1) or 20% sorbitol (HCMV) cushion. Virus stock titers were determined by plaque assay for HSV-1 or tissue culture infectious dose (TCID50) for HCMV and infections were performed at a multiplicity of infection (MOI) of 3.
12 hours prior to virus infection or reactivation, cells were treated with either the small molecule drug or DMSO/PBS control at an equivalent volume. […] For infection cycles lasting longer than 24 hours, small molecule drugs were re-added to the cell culture medium every 24 hours. Upon collection, cells were rinsed with PBS, scraped into a microcentrifuge tube, pelleted by centrifugation, and rinsed again with PBS.

SMILES: Nc1ccn(C[C@@H](CO)OCP(=O)(O)O)c(=O)n1 [CDV, cidofovir]
- UL71 (P16823) protein, numerical value of heatmap FIG. 6C (timepoint 48): 0.3899
- UL78 (P16751) protein, numerical value of heatmap FIG. 6C (timepoint 48): 0.6533
- UL84 (P16727) protein, numerical value of heatmap FIG. 6C (timepoint 48): 0.1297
- UL95 (P16801) protein, numerical value of heatmap FIG. 6C (timepoint 48): 0.1215
- UL96 (P16787) protein, numerical value of heatmap FIG. 6C (timepoint 48): 0.3595
- UL97 (P16788) protein, numerical value of heatmap FIG. 6C (timepoint 48): 0.2502
- UL98 (P16789) protein, numerical value of heatmap FIG. 6C (timepoint 48): 0.3561
- UL102 (P16827) protein, numerical value of heatmap FIG. 6C (timepoint 48): 0.7853
- UL104 (P16735) protein, numerical value of heatmap FIG. 6C (timepoint 48): 0.06237
- UL112/UL113 (P17151) protein, numerical value of heatmap FIG. 6C (timepoint 48): 0.5163
- UL114 (P16769) protein, numerical value of heatmap FIG. 6C (timepoint 48): 0.6429
- UL119/UL118 (P16739) protein, numerical value of heatmap FIG. 6C (timepoint 48): 0.3879
- UL128 (P16837) protein, numerical value of heatmap FIG. 6C (timepoint 48): 0.163
- US8 (P09730) protein, numerical value of heatmap FIG. 6C (timepoint 48): 0.9091
- US9 (P09729) protein, numerical value of heatmap FIG. 6C (timepoint 48): 0.6112
- US12 (P09721) protein, numerical value of heatmap FIG. 6C (timepoint 48): 0.7192
- US13 (P09720) protein, numerical value of heatmap FIG. 6C (timepoint 48): 0.7254
- US14 (P09719) protein, numerical value of heatmap FIG. 6C (timepoint 48): 0.2849
- US18 (P69334) protein, numerical value of heatmap FIG. 6C (timepoint 48): 0.7625
- US22 (P09722) protein, numerical value of heatmap FIG. 6C (timepoint 48): 0.4007
- US23 (P09701) protein, numerical value of heatmap FIG. 6C (timepoint 48): 0.4974
- US24 (P09700) protein, numerical value of heatmap FIG. 6C (timepoint 48): 0.4753
- gB (P06473) protein, numerical value of heatmap FIG. 6C (timepoint 48): 0.1893
- sp|P09710|IR01_HCMVA (P09710) protein, numerical value of heatmap FIG. 6C (timepoint 48): 0.2164
- CVC2 (P16726) protein, numerical value of heatmap FIG. 6C (timepoint 72): 0.2298
- DBP (P17147) protein, numerical value of heatmap FIG. 6C (timepoint 72): 0.7802
- HELI (P16736) protein, numerical value of heatmap FIG. 6C (timepoint 72): 0.7131
- NEC1 (P16794) protein, numerical value of heatmap FIG. 6C (timepoint 72): 0.2456
- NEC2 (P16791) protein, numerical value of heatmap FIG. 6C (timepoint 72): 0.6919
- RIR1 (P16782) protein, numerical value of heatmap FIG. 6C (timepoint 72): 0.443
- TRM1 (P16724) protein, numerical value of heatmap FIG. 6C (timepoint 72): 0.5444
- UL4 (P17146) protein, numerical value of heatmap FIG. 6C (timepoint 72): 0.08145
- UL26 (P16762) protein, numerical value of heatmap FIG. 6C (timepoint 72): 0.4973
- UL32 (P08318) protein, numerical value of heatmap FIG. 6C (timepoint 72): 0.2303
- UL34 (P16812) protein, numerical value of heatmap FIG. 6C (timepoint 72): 0.5754
- UL35 (P16766) protein, numerical value of heatmap FIG. 6C (timepoint 72): 0.3346
- UL38 (P16779) protein, numerical value of heatmap FIG. 6C (timepoint 72): 0.9343
- UL44 (P16790) protein, numerical value of heatmap FIG. 6C (timepoint 72): 0.5197
- UL48 (P16785) protein, numerical value of heatmap FIG. 6C (timepoint 72): 0.4665
- UL54 (P08546) protein, numerical value of heatmap FIG. 6C (timepoint 72): 1.149
- UL71 (P16823) protein, numerical value of heatmap FIG. 6C (timepoint 72): 0.768
- UL78 (P16751) protein, numerical value of heatmap FIG. 6C (timepoint 72): 1.048
- UL84 (P16727) protein, numerical value of heatmap FIG. 6C (timepoint 72): 0.3948
- UL95 (P16801) protein, numerical value of heatmap FIG. 6C (timepoint 72): 0.3335
- UL96 (P16787) protein, numerical value of heatmap FIG. 6C (timepoint 72): 0.5111
- UL97 (P16788) protein, numerical value of heatmap FIG. 6C (timepoint 72): 0.5258
- UL98 (P16789) protein, numerical value of heatmap FIG. 6C (timepoint 72): 0.6741
- UL102 (P16827) protein, numerical value of heatmap FIG. 6C (timepoint 72): 1.111
- UL104 (P16735) protein, numerical value of heatmap FIG. 6C (timepoint 72): 0.4852
- UL112/UL113 (P17151) protein, numerical value of heatmap FIG. 6C (timepoint 72): 0.7131
- UL114 (P16769) protein, numerical value of heatmap FIG. 6C (timepoint 72): 1.008
